Key:
[1] = Metabolic stability in liver microsomes; conditions: dog, liver microsomes, pH 7.4
5-HT2B(h) = biological target: T1, 5-HT2B(h) (Homo sapiens, UniProt P41595); test: Cellular and nuclear receptor functional assay, antagonist effect; format: cell-based; conditions: 10 μM
T1 construct: Eurofins Cerep (France) and Eurofins Discovery (St. Charles, MO)
Description: (§1) The purpose of this study was to provide a first step in preliminary safety assessments by providing early identification of potential off-target interactions for the optimization of safety margins. This study was conducted by Eurofins Cerep (France) and Eurofins Discovery (St. Charles, MO). R-VK4-116 was tested in enzyme and uptake assay with 10 enzyme targets (Figs 4 and 5 in S1 File), and cellular and nuclear receptor functional assays with 24 receptor targets (Figs 5 and 6 in S1 File). Compound enzyme inhibition effect was calculated as a % inhibition of control enzyme activity. The cellular agonist effect was calculated as a % of the control response to a known reference agonist for each target, and the cellular antagonist effect was calculated as a % inhibition of the control reference agonist response for each target.

H1(h) = biological target: T2, H1(h) (Homo sapiens, UniProt P35367); test: as above; format: cell-based
T2 construct: Eurofins Cerep (France) and Eurofins Discovery (St. Charles, MO)
T2 sequence (P35367 whole entry): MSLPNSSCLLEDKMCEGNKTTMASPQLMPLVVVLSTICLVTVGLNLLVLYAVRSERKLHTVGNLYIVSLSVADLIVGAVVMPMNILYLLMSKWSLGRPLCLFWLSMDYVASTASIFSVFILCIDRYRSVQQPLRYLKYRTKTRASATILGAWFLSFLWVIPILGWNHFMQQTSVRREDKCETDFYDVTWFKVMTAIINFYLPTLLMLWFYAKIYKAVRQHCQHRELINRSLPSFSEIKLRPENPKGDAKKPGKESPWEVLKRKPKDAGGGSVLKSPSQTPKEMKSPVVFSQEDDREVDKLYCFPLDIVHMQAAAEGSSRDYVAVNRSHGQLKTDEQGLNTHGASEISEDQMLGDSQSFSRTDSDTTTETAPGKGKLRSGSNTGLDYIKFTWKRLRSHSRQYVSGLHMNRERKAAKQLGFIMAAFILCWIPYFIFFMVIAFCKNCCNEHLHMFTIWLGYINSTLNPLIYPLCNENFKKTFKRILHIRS
Description: as §1

α1A(h) = biological target: T3, α1A(h) (Homo sapiens, UniProt P35348); test: as above; format: cell-based
T3 construct: Eurofins Cerep (France) and Eurofins Discovery (St. Charles, MO)
T3 sequence (P35348 whole entry): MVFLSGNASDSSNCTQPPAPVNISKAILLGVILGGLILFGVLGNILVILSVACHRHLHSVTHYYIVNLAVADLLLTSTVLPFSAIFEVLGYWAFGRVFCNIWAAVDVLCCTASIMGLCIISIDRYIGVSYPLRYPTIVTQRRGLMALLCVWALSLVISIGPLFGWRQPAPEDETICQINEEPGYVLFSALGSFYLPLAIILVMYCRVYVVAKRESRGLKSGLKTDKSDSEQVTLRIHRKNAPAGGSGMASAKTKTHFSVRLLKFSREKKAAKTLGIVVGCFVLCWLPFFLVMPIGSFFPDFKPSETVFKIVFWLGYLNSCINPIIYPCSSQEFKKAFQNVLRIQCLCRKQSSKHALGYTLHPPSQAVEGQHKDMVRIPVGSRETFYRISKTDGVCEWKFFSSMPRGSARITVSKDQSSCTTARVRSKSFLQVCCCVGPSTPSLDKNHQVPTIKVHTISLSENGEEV
Description: as §1

V1a(h) = biological target: T4, V1a(h) (Homo sapiens, UniProt P37288); test: as above; format: cell-based; conditions: 10 μM
T4 construct: Eurofins Cerep (France) and Eurofins Discovery (St. Charles, MO)
T4 sequence (P37288 whole entry): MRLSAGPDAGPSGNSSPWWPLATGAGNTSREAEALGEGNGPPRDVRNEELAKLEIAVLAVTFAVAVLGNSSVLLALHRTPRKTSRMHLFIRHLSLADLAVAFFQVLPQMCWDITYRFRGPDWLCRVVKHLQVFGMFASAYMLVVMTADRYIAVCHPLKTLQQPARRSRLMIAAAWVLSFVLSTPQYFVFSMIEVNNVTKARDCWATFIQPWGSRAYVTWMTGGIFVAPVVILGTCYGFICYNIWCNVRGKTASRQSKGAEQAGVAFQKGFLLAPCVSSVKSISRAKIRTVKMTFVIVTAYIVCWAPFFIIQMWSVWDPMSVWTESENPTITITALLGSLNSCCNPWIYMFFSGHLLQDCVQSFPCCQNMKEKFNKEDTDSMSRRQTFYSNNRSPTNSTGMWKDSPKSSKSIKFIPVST
Description: as §1

CYP3A4 = test: CYP induction, in situ catalytic activity, human hepatocytes; format: in vitro ADME
[2] = Metabolic stability in liver microsomes; conditions: monkey, pH 7.4
24 receptor targets = test: Cellular and nuclear receptor functional assays, agonist and antagonist effect (panel); format: cell-based; conditions: 10 μM
Description: as §1

[3] = heat-inactivated liver microsomes

T1 sequence (P41595 whole entry): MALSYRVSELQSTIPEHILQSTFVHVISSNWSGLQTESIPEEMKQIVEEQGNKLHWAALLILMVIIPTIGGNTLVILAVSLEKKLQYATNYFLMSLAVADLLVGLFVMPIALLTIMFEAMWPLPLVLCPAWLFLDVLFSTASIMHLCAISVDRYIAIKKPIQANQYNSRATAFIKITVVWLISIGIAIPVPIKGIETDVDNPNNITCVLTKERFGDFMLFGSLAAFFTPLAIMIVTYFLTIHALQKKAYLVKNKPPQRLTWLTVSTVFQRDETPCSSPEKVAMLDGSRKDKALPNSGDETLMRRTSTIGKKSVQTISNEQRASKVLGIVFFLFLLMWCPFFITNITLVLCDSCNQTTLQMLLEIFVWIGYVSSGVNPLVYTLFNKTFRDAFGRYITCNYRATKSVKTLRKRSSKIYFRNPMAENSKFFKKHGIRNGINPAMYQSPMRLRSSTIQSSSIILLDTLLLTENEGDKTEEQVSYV

CCc1cc(Cl)c(OC)c(N2CCN(CC(O)CCNC(=O)c3cc4ccccc4[nH]3)CC2)c1 (stereo not drawn) [R-VK4-116, N-(4-(4-(3-chloro-5-ethyl-2-methoxyphenyl)piperazin-1-yl)-3-hydroxybutyl)-1H-indole-2-carboxamide]
remaining at 0.5 h, 1 μM [1]: 44.6% | remaining at 0.5 h, 10 μM [1]: 74.3% | remaining at 1 h, 1 μM [1]: 22.5% | remaining at 1 h, 10 μM [1]: 64.5% | remaining at 1.5 h, 1 μM [1]: 22.3% | remaining at 1.5 h, 10 μM [1]: 55.6% | remaining at 2 h, 1 μM [1]: 19.7% | remaining at 2 h, 10 μM [1]: 49.9% | antagonist effect (5-HT2B(h)): 44.6% | inhibition at 10 µM (H1(h)): 86.1% | inhibition at 10 µM (α1A(h)): 82.9% | antagonist effect (V1a(h)): 27.8% | CYP3A4 activity (CYP3A4; 0.01 to 10 μM): did not increase | Fold of Vehicle Control (CYP3A4 activity, testosterone-6β-hydroxylation) (CYP3A4; hepatocyte Lot 336, 0.01 µM): 0.96 fold | Testosterone-6β- Hydroxylation (CYP3A4; hepatocyte Lot 336, 0.01 µM): 9.1 pmol/min/106 cells | Fold of Vehicle Control (CYP3A4 activity, testosterone-6β-hydroxylation) (CYP3A4; hepatocyte Lot 336, 0.1 µM): 0.80 fold | Testosterone-6β- Hydroxylation (CYP3A4; hepatocyte Lot 336, 0.1 µM): 7.5 pmol/min/106 cells | Fold of Vehicle Control (CYP3A4 activity, testosterone-6β-hydroxylation) (CYP3A4; hepatocyte Lot 336, 1 µM): 0.66 fold | Testosterone-6β- Hydroxylation (CYP3A4; hepatocyte Lot 336, 1 µM): 6.3 pmol/min/106 cells | Fold of Vehicle Control (CYP3A4 activity, testosterone-6β-hydroxylation) (CYP3A4; hepatocyte Lot 336, 3 µM): 0.63 fold | Testosterone-6β- Hydroxylation (CYP3A4; hepatocyte Lot 336, 3 µM): 5.9 pmol/min/106 cells | Fold of Vehicle Control (CYP3A4 activity, testosterone-6β-hydroxylation) (CYP3A4; hepatocyte Lot 336, 5 µM): 0.64 fold | Testosterone-6β- Hydroxylation (CYP3A4; hepatocyte Lot 336, 5 µM): 6.1 pmol/min/106 cells | Fold of Vehicle Control (CYP3A4 activity, testosterone-6β-hydroxylation) (CYP3A4; hepatocyte Lot 336, 10 µM): 0.55 fold | Fold of Vehicle Control (CYP3A4 activity, testosterone-6β-hydroxylation) (CYP3A4; hepatocyte Lot 348B, 0.01 µM): 1.0 fold | Fold of Vehicle Control (CYP3A4 activity, testosterone-6β-hydroxylation) (CYP3A4; hepatocyte Lot 348B, 0.1 µM): 1.0 fold | Fold of Vehicle Control (CYP3A4 activity, testosterone-6β-hydroxylation) (CYP3A4; hepatocyte Lot 348B, 1 µM): 0.70 fold | Fold of Vehicle Control (CYP3A4 activity, testosterone-6β-hydroxylation) (CYP3A4; hepatocyte Lot 348B, 3 µM): 0.56 fold | Fold of Vehicle Control (CYP3A4 activity, testosterone-6β-hydroxylation) (CYP3A4; hepatocyte Lot 348B, 5 µM): 0.56 fold | Fold of Vehicle Control (CYP3A4 activity, testosterone-6β-hydroxylation) (CYP3A4; hepatocyte Lot 348B, 10 µM): 0.49 fold | Fold of Vehicle Control (CYP3A4 activity, testosterone-6β-hydroxylation) (CYP3A4; hepatocyte Lot 399, 0.01 µM): 1.0 fold | Testosterone-6β- Hydroxylation (CYP3A4; hepatocyte Lot 399, 0.01 µM): 58 pmol/min/106 cells | Fold of Vehicle Control (CYP3A4 activity, testosterone-6β-hydroxylation) (CYP3A4; hepatocyte Lot 399, 0.1 µM): 0.89 fold | Testosterone-6β- Hydroxylation (CYP3A4; hepatocyte Lot 399, 0.1 µM): 49 pmol/min/106 cells | Fold of Vehicle Control (CYP3A4 activity, testosterone-6β-hydroxylation) (CYP3A4; hepatocyte Lot 399, 1 µM): 0.45 fold | Testosterone-6β- Hydroxylation (CYP3A4; hepatocyte Lot 399, 1 µM): 25 pmol/min/106 cells | Fold of Vehicle Control (CYP3A4 activity, testosterone-6β-hydroxylation) (CYP3A4; hepatocyte Lot 399, 3 µM): 0.32 fold | Testosterone-6β- Hydroxylation (CYP3A4; hepatocyte Lot 399, 3 µM): 18 pmol/min/106 cells | Fold of Vehicle Control (CYP3A4 activity, testosterone-6β-hydroxylation) (CYP3A4; hepatocyte Lot 399, 5 µM): 0.30 fold | Testosterone-6β- Hydroxylation (CYP3A4; hepatocyte Lot 399, 5 µM): 16 pmol/min/106 cells | Fold of Vehicle Control (CYP3A4 activity, testosterone-6β-hydroxylation) (CYP3A4; hepatocyte Lot 399, 10 µM): 0.23 fold | Testosterone-6β- Hydroxylation (CYP3A4; hepatocyte Lot 399, 10 µM): 13 pmol/min/106 cells | remaining at 0 h, 1 μM [2, 3]: 100% | remaining at 0 h, 10 μM [2, 3]: 100% | remaining at 2 h, 1 μM [2, 3]: 90% | remaining at 2 h, 10 μM [2, 3]: 89.9% | remaining at 0 h, 1 μM ([2]; liver microsomes): 100% | remaining at 0 h, 10 μM ([2]; liver microsomes): 100% | remaining at 0.5 h, 1 μM ([2]; liver microsomes): 32% | remaining at 0.5 h, 10 μM ([2]; liver microsomes): 60.1% | remaining at 1 h, 1 μM ([2]; liver microsomes): 21.2% | remaining at 1 h, 10 μM ([2]; liver microsomes): 46.5% | remaining at 1.5 h, 1 μM ([2]; liver microsomes): 17.5% | remaining at 1.5 h, 10 μM ([2]; liver microsomes): 42.1% | remaining at 2 h, 1 μM ([2]; liver microsomes): 15% | remaining at 2 h, 10 μM ([2]; liver microsomes): 39.7% | agonist and antagonist effects for most of the targets (24 receptor targets): did not exhibit agonist and antagonist effects
